Results on 1 molecule are retold here after patent US10555919B2, “Melatonin in autoimmune disease” (The Brigham and Women's Hopsital, Inc., priority 2014, dated 2020).

The test system of test [1] is experimental autoimmune encephalitis (EAE) model of MS. Put plainly: EAE in mice immunized with MOG35-55, treated daily with melatonin or vehicle. Format: in vivo, C57BL/6 wild-type mice. Conditions: melatonin 5 mg/kg intraperitoneally daily.
Test [2] concerns FoxP3+ iTregs, Th1 or Th2 cells. As to the kind of experiment: In vitro mouse differentiation of FoxP3+ iTregs, Th1 or Th2 cells. As to conditions: melatonin 2 ng/ml, 3 days. Format: cell-based. The procedure: Naive CD4+ T cells (CD4+CD44loCD62LhiCD25−) were from the spleen and lymph node of C57BL/6 wild-type, MTNR1A−, NFIL3−, REV-ERBα, C/EBPα-deficient or RORα-deficient mice using magnetic beads (CD4+ T cell isolation kit, Miltenyi Biotec). All experiments were started between 7 and 9 am. Cells were activated with plate-bound anti-CD3 (2 μg/ml; 14-0031-86; eBioscience) and anti-CD28 (2 μg/ml; 16-0281-86; eBioscience). Mouse IL-27 (30 ng/ml; 34-8271; Biolegend) was added for the generation of Tr1 cells. IL-6 (30 ng/ml; 406-ML-025; R&D Systems), TGF-β1 (15 ng/ml; 130-095-067; […] C17.8; Biolegend) and anti-IFN-γ (5 μg/ml; XMG1.2; Biolegend) were added for the generation of Th17 cells. Recombinant mouse IL-23 (30 ng/ml; 1887-ML-010; R&D Systems) was added at day 2. For some experiments IL-6 and […] (10 ng/ml; 401-ML-025; R&D Systems) or TGF-β1 and IL-21 (100 ng/ml; 594-ML-010; R&D Systems) were used in instead for Th17 cell differentiation. IL-12 (30 ng/ml; 419-ML-010; […] C17.8; Biolegend) were used for the generation of Th1 cells. IL-4 (30 ng/ml; 404-ML-010; R&D Systems) and anti-IFN-γ (5 μg/ml; XMG1.2; Biolegend) was added for the generation of Th2 cells. TGF-β1 (15 ng/ml; 130-095-067; Miltenyi Biotec) was used for the generation of Foxp3+ Tregs.

A further test deals with Erk1/2. As to the kind of experiment: Signal transduction profiling using reverse protein arrays. Type of test: cell-based, mouse. As to conditions: T cells; MTNR1A-dependent.
The next test has as its system ROR-α. Put plainly: Chromatin immunoprecipitation with anti-ROR-α at the il10 promoter. Type of test: cell-based, mouse. As to conditions: T-cell activation under Tr1 polarizing conditions in the presence of melatonin. The procedure:
DNA-protein complexes in cells were crosslinked with 4% paraformaldehyde and lysed with 0.35 ml lysis buffer (1% SDS, 10 mM EDTA and 50 mM Tris-HCl, pH 8.1) containing 1×protease inhibitor ‘cocktail’ (Roche Molecular Biochemicals). Chromatin was sheared by sonication and supernatants collected after centrifugation were diluted in buffer (1% Triton X-100, 2 mM EDTA, 150 mM NaCl and 20 mM Tris-HCl, pH 8.1). 5 μg antibody was prebound for a minimum of 6 hs to protein A and protein G Dynal magnetic beads (Invitrogen) and samples were washed three times with ice-cold PBS containing 5% BSA, and then were added to the diluted chromatin, followed by immunoprecipitation overnight. The magnetic bead-chromatin complexes were then washed three times in radioimmunoprecipitation buffer (50 mM HEPES, pH 7.6, 1 mM EDTA, 0.7% Na deoxycholate, 1% NP-40 and 0.5 M LiCl), followed by two washes with Tris-EDTA buffer. Immunoprecipitated chromatin was then extracted with a solution of 1% SDS and 0.1 MNaHCO3 and was heated at 65° C. for at least 6 h for reversal of the paraformaldehyde cross-linking. DNA fragments were purified with a QIAquick DNA purification Kit (Qiagen) and were analyzed by SYBR Green real-time PCR (Takara Bio).

Method for Erk1/2: Cells activated under polarizing conditions were treated with vehicle (DMSO 0.001%), melatonin (2-10 ng/mL), agomelatine (2-10 ng/mL) and CGP-52608 (2-10 ng/mL) during 72-96 hs and lysed. Lysates were transferred to 384-well polypropylene plates and were spotted onto Super Epoxi slides (Telechem) with a robotic microarrayer (Genetix) fitted with solid spotting pins.

For the molecule `COc1ccc2[nH]cc(CCNC(C)=O)c2c1` [Melatonin, N-Acetyl-5-methoxytryptamine], in test [1], the EAE clinical symptoms entry was “ameliorated”, the “Mean onset day (mean ± sd)” value is 11.8 ± 3.0 days and the Mortality is reported as 0/24. In addition, the “Mean maximum score (mean ± sd)” value in test [1] (**P < 0.05) is given as 2.06 ± 0.8**. In addition, in test [1] (*P = 0.05), the “Incidence (%)” value is reported as 65% and the “Incidence (animals)” value is reported as 17/24. Besides, the “differentiation of FoxP3+ iTregs, Th1 or Th2 cells” value in test [2] is listed as “no effects”. In addition, in the test with Erk1/2, the “activation of Erk1/2” value is “increase”. In the test with ROR-α, the “binding of ROR-α to the il10 promoter” value was “increased”.
